# Reference: PubChem BioAssay (NCI)
#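 Test compounds were applied to cells in 96-well plates for 48 hours at 5 doses. GI50: concentration for 50% inhibition of growth. The concentration for full growth arrest is given as TGI.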
# Assays:
# Assay in all cases: NCI tumour cell line growth inhibition, 48 h
# CCRF-CEM leukemia = test system: CCRF-CEM leukemia
# HOP-62 NSCLC = test system: HOP-62 NSCLC
# M14 melanoma = test system: M14 melanoma
# NCI-H226 lung = test system: NCI-H226 lung
# OVCAR-4 ovarian = test system: OVCAR-4 ovarian
# SF-539 CNS = test system: SF-539 CNS
# SNB-75 CNS = test system: SNB-75 CNS
# SW-620 colon = test system: SW-620 colon
# TK-10 renal = test system: TK-10 renal
# ACHN renal = test system: ACHN renal
SMILES,TGI (CCRF-CEM leukemia) [µM],TGI (HOP-62 NSCLC) [µM],TGI (M14 melanoma) [µM],TGI (NCI-H226 lung) [µM],TGI (OVCAR-4 ovarian) [µM],TGI (SF-539 CNS) [µM],TGI (SNB-75 CNS) [µM],TGI (SW-620 colon) [µM],TGI (TK-10 renal) [µM],TGI (ACHN renal) [µM],GI50 (ACHN renal) [µM],GI50 (CCRF-CEM leukemia) [µM],GI50 (HOP-62 NSCLC) [µM],GI50 (M14 melanoma) [µM],GI50 (NCI-H226 lung) [µM],GI50 (SF-539 CNS) [µM],GI50 (SNB-75 CNS) [µM],GI50 (SW-620 colon) [µM],GI50 (TK-10 renal) [µM],GI50 (OVCAR-4 ovarian) [µM]
O=[N+]([O-])c1ccc(/C=N/Nc2nc3ccccc3[nH]2)o1,26.6,35.4,27.6,55.5,21.6,13.8,36.4,28.3,50,,,,,,,,,,,
O=C1c2cc(O)c(O)cc2O[C@H](c2ccc(O)c(O)c2)[C@H]1O,> 100,> 100,> 100,> 100,,> 100,> 100,> 100,> 100,> 100,,,,,,,,,,
Oc1ccc(C(=C(Br)c2ccccc2)c2ccc(O)cc2)cc1,32.3,22.2,15.3,33,,18.8,,14.9,31.8,21.7,,,,,,,,,,
CN1C(=O)CC(=O)N1/C(=C/c1ccccc1)c1ccccc1,54.3,> 100,> 100,> 100,> 100,,> 100,> 100,91.9,> 100,,,,,,,,,,
O=C1c2cc3c(cc2-c2c1c1ccc(Cl)cc1c(=O)n2C[C@H](O)CO)OCO3,24.2,1.51,0.244,0.165,,0.093,1.1,1.02,1.76,0.111,0.0199,< 0.01,0.022,0.025,0.0296,0.0253,0.0245,0.02,0.277,
COC(=O)c1cc2c(cc1Cl)Sc1nnc(Nc3ccccc3)n1S2(=O)=O,6.13,5.52,17.5,14.8,8.97,6.07,17.1,11.1,8.66,4.16,,,,,,,,,,
O=C1c2ccccc2C(=O)c2[nH]cnc21,> 100,> 100,> 100,93.3,> 100,> 100,,,> 100,> 100,,,,,,,,,,
O=C(CSCC(=O)N/N=C/c1cccc(O)c1)N/N=C/c1cccc(O)c1,,> 100,> 100,> 100,> 100,> 100,> 100,> 100,> 100,> 100,,,,,,,,,,
Cc1ccc(S(=O)(=O)N(CC(O)COc2ccccc2)c2c(F)cccc2F)cc1 (stereo not given),95.8,42.7,32,71.1,31.7,33,49,67.7,97.5,40.1,,,,,,,,,,
CC(SC(=S)N1CCOCC1)C(=O)Nc1nnc(-c2ccc(Cl)cc2)o1 (stereo not given),,> 100,> 100,> 100,> 100,> 100,> 100,> 100,> 100,> 100,,,,,,,,,,
O=c1[nH]c2[nH]c(=S)[nH]c(=S)c2[nH]1,,> 100,> 100,> 100,> 100,,,> 100,> 100,> 100,,,,,,,,,,
COc1ccc2nc3c(c(N)c2c1)C1CCC3C1(C)C (stereo not given),98.4,47.9,33.6,72,> 100,> 100,> 100,> 100,> 100,> 100,,,,,,,,,,
COc1ccc(OC)c2sc(N3C(=O)/C(=C/c4cccc(Oc5ccccc5)c4)N=C3c3ccccc3)nc12,> 100,> 100,> 100,,> 100,,> 100,> 100,> 100,> 100,,,,,,,,,,
O=C1C(Cl)N(c2ccccc2Cl)C1c1c[nH]c2ccccc12 (stereo not given),> 100,> 100,> 100,,> 100,> 100,> 100,> 100,> 100,,,,,,,,,,,
Cc1ccc(S(=O)(=O)OC2CC(C(C)(C)C)CCC2c2ccccc2)cc1 (stereo not given),,> 100,> 100,> 100,> 100,> 100,68,> 100,> 100,> 100,,,,,,,,,,
CCOC(=O)c1c2c(n(-c3ccc(C)cc3)c1C)-c1ccccc1C(=O)C2(C(=O)OCC)C(=O)OCC,> 100,> 100,> 100,> 94.7,> 100,> 71.9,> 91.4,> 100,> 100,> 100,,,,,,,,,,
C=C(C#N)C(=O)OCC(CC)CC.C=C(C#N)C(=O)OCC(CC)CC.CS(C)=O.CS(C)=O.Nc1c(N=Nc2ccc(-c3ccc(N=Nc4cc(S(=O)(=O)[O-])c5ccccc5c4N)cc3)cc2)cc(S(=O)(=O)[O-])c2ccccc12.[Pt+2],> 100,> 100,,> 74.1,99.2,> 100,> 100,46.2,,,,30.7,> 82.8,,36.8,84.7,65.4,25,,33.7
COc1ccc2nc3cc(Cl)ccc3c(NC(C)CCCN(CCCl)CCCl)c2c1 (stereo not given),1.12,7.38,2.78,3.44,4.33,3,8.98,2.07,6.04,3.17,,,,,,,,,,
CSCCC(C(=O)O)N(C)C (stereo not given),> 100,> 100,> 100,> 100,> 100,> 100,> 100,> 100,> 100,> 100,,,,,,,,,,
